Laboratory results as given in the supplement of paper PMC4862054.
Where “and” joins values, the source holds several entries; their conditions need not be identical. Identical values can stand only once.

Assays:
Assay in all cases: normalised viability (% of control), CellTiter-Blue; higher = more viable cells (about 100 = DMSO control)
Conditions in all cases: incubation time: 72 h
CAL-148 [1] = test system: CAL-148
Procedure: (§1)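 DSRT, CellTiter-Blue viability, 72 h incubation. Signal is normalised to DMSO and benzethonium chloride controls. Value is the normalised response at dose 7.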

CAL-51 [2] = test system: CAL-51
Procedure: as §1

DU-4475 [3] = test system: DU-4475
Procedure: as §1

HDQ-P1 [4] = test system: HDQ-P1
Procedure: as §1

MDA-MB-453 [5] = test system: MDA-MB-453
Procedure: as §1

CAL-148 [6] = test system: CAL-148; remark: listed apart in the source
Procedure: (§2)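 DSRT, CellTiter-Blue viability, 72 h incubation. Signal is normalised to DMSO and benzethonium chloride controls. Value is the normalised response at dose 9.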

CAL-51 [7] = test system: CAL-51; remark: listed apart in the source
Procedure: as §2

CAL-85-1 = test system: CAL-85-1
Procedure: as §2

DU-4475 [8] = test system: DU-4475; remark: listed apart in the source
Procedure: as §2

HDQ-P1 [9] = test system: HDQ-P1; remark: listed apart in the source
Procedure: as §2

MDA-MB-453 [10] = test system: MDA-MB-453; remark: listed apart in the source
Procedure: as §2

Row | Structure (SMILES) | normalised viability (CAL-148 [1]) | normalised viability (CAL-51 [2]) | normalised viability (DU-4475 [3]) | normalised viability (HDQ-P1 [4]) | normalised viability (MDA-MB-453 [5]) | normalised viability (CAL-148 [6]) | normalised viability (CAL-51 [7]) | normalised viability (CAL-85-1) | normalised viability (DU-4475 [8]) | normalised viability (HDQ-P1 [9]) | normalised viability (MDA-MB-453 [10])
1 | N#Cc1ccc(COC[C@H]2O[C@@H](n3c(NCc4ccc(Cl)c(Cl)c4)nc4c(N)ncnc43)[C@H](O)[C@@H]2O)cc1 (1000 nM) | 101% | 105% | 99.8% | 81.2% | 93.2% | – | – | – | – | – | –
2 | N#Cc1ccc(COC[C@H]2O[C@@H](n3c(NCc4ccc(Cl)c(Cl)c4)nc4c(N)ncnc43)[C@H](O)[C@@H]2O)cc1 (10000 nM) | – | – | – | – | – | 89% | 89.9% | 92% | 76.9% | 88.4% | 50.3%
3 | COc1cc(OC2CCN(C)CC2)ccc1Nc1ncc2c(n1)n(C1CCCC1)c(=O)n2C [AZ 3146] (1000 nM) | 108% | 75.2% | 99% | 89.4% | 90.6% | – | – | – | – | – | –
4 | COc1cc(OC2CCN(C)CC2)ccc1Nc1ncc2c(n1)n(C1CCCC1)c(=O)n2C [AZ 3146] (10000 nM) | – | – | – | – | – | 48.4% | 22% | 72.4% | 54.6% | 80.1% | 37.4%
5 | CN(C)c1nc(N(C)C)nc(N(C)C)n1 [Altretamine] (1000 nM) | 105% | 103% | 113% | 101% | 91.6% | – | – | – | – | – | –
6 | CN(C)c1nc(N(C)C)nc(N(C)C)n1 [Altretamine] (10000 nM) | – | – | – | – | – | 63.4% | 72.6% | 46.5% | 94.7% | 111% | 18.7%
7 | O=C(/C=C/c1cccc(S(=O)(=O)Nc2ccccc2)c1)NO [Belinostat] (1000 nM) | 24.3% | 59.9% | 33.3% | 49.5% | 4.06% | – | – | – | – | – | –
8 | O=C(/C=C/c1cccc(S(=O)(=O)Nc2ccccc2)c1)NO [Belinostat] (10000 nM) | – | – | – | – | – | 0.35% | 3.47% | 7.19% | 4.25% | 23% | 1.48%
9 | O=P1(N(CCCl)CCCl)NCCCO1 (configuration not stated) [Cyclophosphamide] (4000 nM) | 121% | 99% | 97% | 99.2% | 105% | – | – | – | – | – | –
10 | O=P1(N(CCCl)CCCl)NCCCO1 (configuration not stated) [Cyclophosphamide] (40000 nM) | – | – | – | – | – | 110% | 101% | 98.4% | 94.4% | 120% | 117%
11 | C=C1C[C@@H]2[C@H](CC[C@]3(C)C(=O)CC[C@@H]23)[C@@]2(C)C=CC(=O)C=C12 [Exemestane] (1000 nM) | 120% | 96.5% | 85.8% | 102% | 90.2% | – | – | – | – | – | –
12 | C=C1C[C@@H]2[C@H](CC[C@]3(C)C(=O)CC[C@@H]23)[C@@]2(C)C=CC(=O)C=C12 [Exemestane] (10000 nM) | – | – | – | – | – | 104% | 105% | 99.1% | 88.9% | 103% | 81%
13 | COc1cc2ncnc(Nc3ccc(F)c(Cl)c3)c2cc1OCCCN1CCOCC1 [Gefitinib] (1000 nM) | 79.6% and 83.3% | 107% and 98.3% | 101% and 86.2% | 76.2% and 90.4% | 82.9% and 76.9% | – | – | – | – | – | –
14 | COc1cc2ncnc(Nc3ccc(F)c(Cl)c3)c2cc1OCCCN1CCOCC1 [Gefitinib] (10000 nM) | – | – | – | – | – | 69.2% and 65% | 82.1% and 81.6% | 45% and 40.7% | 102% and 105% | 59.6% and 51.1% | 29.8% and 23%
15 | O=C(Nc1ccncc1)C(=O)c1cn(Cc2ccc(Cl)cc2)c2ccccc12 [Indibulin] (1000 nM) | 118% | 54.2% | 81.8% | 61.3% | 38.5% | – | – | – | – | – | –
16 | O=C(Nc1ccncc1)C(=O)c1cn(Cc2ccc(Cl)cc2)c2ccccc12 [Indibulin] (10000 nM) | – | – | – | – | – | 43.7% | 24.4% | 38.9% | 21.4% | 55.2% | 36%
17 | NC(=O)c1ccc(I)c([N+](=O)[O-])c1 [Iniparib] (1000 nM) | 87.9% | 95.3% | 108% | 99.6% | 89.2% | – | – | – | – | – | –
18 | NC(=O)c1ccc(I)c([N+](=O)[O-])c1 [Iniparib] (10000 nM) | – | – | – | – | – | 108% | 91.6% | 98% | 94% | 106% | 84.8%
19 | CCc1c2c(nc3ccc(OC(=O)N4CCC(N5CCCCC5)CC4)cc13)-c1cc3c(c(=O)n1C2)COC(=O)[C@]3(O)CC [Irinotecan] (1000 nM) | 61.5% and 70.9% | 80.6% and 99.8% | 73.1% and 78.7% | 98.8% and 93.5% | 76% and 99.8% | – | – | – | – | – | –
20 | CCc1c2c(nc3ccc(OC(=O)N4CCC(N5CCCCC5)CC4)cc13)-c1cc3c(c(=O)n1C2)COC(=O)[C@]3(O)CC [Irinotecan] (10000 nM) | – | – | – | – | – | – | 8.48% and 31.6% | – | 4.69% and 18.8% | 64% and 80% | –
21 | Oc1ccc2c(c1)CC[C@H](c1ccccc1)[C@@H]2c1ccc(OCCN2CCCC2)cc1 [Lasofoxifene] (100 nM) | 107% | 99.7% | 106% | 109% | 80.7% | – | – | – | – | – | –

Row | Structure (SMILES) | normalised viability (CAL-148 [1]) | normalised viability (CAL-51 [2]) | normalised viability (DU-4475 [3]) | normalised viability (HDQ-P1 [4]) | normalised viability (MDA-MB-453 [5]) | normalised viability (CAL-148 [6]) | normalised viability (CAL-51 [7]) | normalised viability (CAL-85-1) | normalised viability (DU-4475 [8]) | normalised viability (HDQ-P1 [9]) | normalised viability (MDA-MB-453 [10])
22 | Oc1ccc2c(c1)CC[C@H](c1ccccc1)[C@@H]2c1ccc(OCCN2CCCC2)cc1 [Lasofoxifene] (1000 nM) | – | – | – | – | – | 107% | 90% | 81.8% | 97.8% | 125% | 107%
23 | Cc1ccc(NC(=O)c2ccc(CN3CCN(C)CC3)cc2)cc1Nc1nc(-c2cccnc2)cs1 [Masitinib] (1000 nM) | 87.1% | 104% | 120% | 105% | 89.6% | – | – | – | – | – | –
24 | Cc1ccc(NC(=O)c2ccc(CN3CCN(C)CC3)cc2)cc1Nc1nc(-c2cccnc2)cs1 [Masitinib] (10000 nM) | – | – | – | – | – | 74.5% | 80.4% | 70.4% | 119% | 67.6% | 24.4%
25 | O=C(Nc1cccnc1)N1CCC(Cc2cccc(Oc3ccc(C(F)(F)F)cn3)c2)CC1 [PF-3845] (1000 nM) | 101% | 101% | 81.3% | 144% | 86% | – | – | – | – | – | –
26 | O=C(Nc1cccnc1)N1CCC(Cc2cccc(Oc3ccc(C(F)(F)F)cn3)c2)CC1 [PF-3845] (10000 nM) | – | – | – | – | – | 98.2% | 65.5% | 93.4% | 108% | 128% | 38.4%
27 | Cc1[nH]c2ccccc2c1CCNCc1ccc(/C=C/C(=O)NO)cc1 [Panobinostat] (100 nM) | 5.94% | 25.6% | 3.38% | 32.3% | 2.59% | – | – | – | – | – | –
28 | Cc1[nH]c2ccccc2c1CCNCc1ccc(/C=C/C(=O)NO)cc1 [Panobinostat] (1000 nM) | – | – | – | – | – | 0.37% | 1.29% | 4.25% | 4.66% | 15% | 1.09%
29 | COCC1(CO)C(=O)C2CCN1CC2 (configuration not stated) [Prima-1 Met] (1000 nM) | 102% | 102% | 108% | 106% | 80.5% | – | – | – | – | – | –
30 | COCC1(CO)C(=O)C2CCN1CC2 (configuration not stated) [Prima-1 Met] (10000 nM) | – | – | – | – | – | 80.7% | 99.7% | 98.3% | 125% | 103% | 89.4%
31 | CNC(=O)c1cc(Oc2ccc(NC(=O)Nc3ccc(Cl)c(C(F)(F)F)c3)c(F)c2)ccn1 [Regorafenib] (1000 nM) | 107% | 90.5% | 97.6% | 98.3% | 87% | – | – | – | – | – | –
32 | CNC(=O)c1cc(Oc2ccc(NC(=O)Nc3ccc(Cl)c(C(F)(F)F)c3)c(F)c2)ccn1 [Regorafenib] (10000 nM) | – | – | – | – | – | 81.7% | 48.2% | 76.7% | 39.3% | 92.9% | 22%
33 | CO[C@H]1C[C@@H]2CC[C@@H](C)[C@@](O)(O2)C(=O)C(=O)N2CCCC[C@H]2C(=O)O[C@H]([C@H](C)C[C@@H]2CC[C@@H](OP(C)(C)=O)[C@H](OC)C2)CC(=O)[C@H](C)/C=C(\C)[C@@H](O)[C@@H](OC)C(=O)[C@H](C)C[C@H](C)/C=C/C=C/C=C/1C [Ridaforolimus] (100 nM) | 37% | 39.4% | 53.7% | 76.6% | 24.1% | – | – | – | – | – | –
34 | c1ccc2c(CCNc3ccc(Nc4ccncc4)cc3)c[nH]c2c1 [Serdemetan] (1000 nM) | 77.3% | 102% | 104% | 96.4% | 85.2% | – | – | – | – | – | –
35 | c1ccc2c(CCNc3ccc(Nc4ccncc4)cc3)c[nH]c2c1 [Serdemetan] (10000 nM) | – | – | – | – | – | 55.8% | 57% | 55.1% | -0.82% | 56.6% | 39.4%
36 | CN(C)CCOc1ccc(/C(=C(/CCCl)c2ccccc2)c2ccccc2)cc1 [Toremifene] (1000 nM) | 108% | 100% | 97.4% | 124% | 106% | – | – | – | – | – | –
37 | CN(C)CCOc1ccc(/C(=C(/CCCl)c2ccccc2)c2ccccc2)cc1 [Toremifene] (10000 nM) | – | – | – | – | – | 104% | 105% | 83.6% | 94.5% | 108% | 26.5%
38 | CC(C)C[C@@H](C(=O)N[C@H](C(=O)OC1CCCC1)c1ccccc1)[C@H](O)C(=O)NO [Tosedostat] (1000 nM) | 67.8% | 77.1% | 51% | 76.3% | 41.2% | – | – | – | – | – | –
39 | CC(C)C[C@@H](C(=O)N[C@H](C(=O)OC1CCCC1)c1ccccc1)[C@H](O)C(=O)NO [Tosedostat] (10000 nM) | – | – | – | – | – | 23.2% | 33.6% | 49.5% | 35.2% | 76.5% | 18.8%
40 | COc1cc2/c(=N/c3ccc(Br)cc3F)nc[nH]c2cc1OCC1CCN(C)CC1 [Vandetanib] (1000 nM) | 89.2% | 82.4% | 105% | 48.7% | 87.9% | – | – | – | – | – | –
41 | COCC[n+]1c2c(n(Cc3cnccn3)c1C)C(=O)c1ccccc1C2=O [YM155] (1000 nM) | 2.29% | 1.61% | 1.98% | 0.25% | 7.19% | – | – | – | – | – | –
42 | COCC[n+]1c2c(n(Cc3cnccn3)c1C)C(=O)c1ccccc1C2=O [YM155] (10000 nM) | – | – | – | – | – | 2.13% | 1.83% | 2.71% | 0.83% | 0.66% | 2%
